In ChEMBL document CHEMBL1201862, “PubChem BioAssay data set” (2004) one finds IC50, EC50 and AC50 data, which are given here for 12 compounds.

Activity calls are given as the source filed them.

Assay [1] addresses Nonstructural protein 1 (Influenza A virus, UniProt Q194T2). The assay is classed as functional, Influenza A virus (A/California/07/2009(H1N1)).
Assay [2] deals with T1, Short transient receptor potential channel 4 (Mus musculus, UniProt Q9QUQ5).
T1 sequence (Q9QUQ5 whole entry): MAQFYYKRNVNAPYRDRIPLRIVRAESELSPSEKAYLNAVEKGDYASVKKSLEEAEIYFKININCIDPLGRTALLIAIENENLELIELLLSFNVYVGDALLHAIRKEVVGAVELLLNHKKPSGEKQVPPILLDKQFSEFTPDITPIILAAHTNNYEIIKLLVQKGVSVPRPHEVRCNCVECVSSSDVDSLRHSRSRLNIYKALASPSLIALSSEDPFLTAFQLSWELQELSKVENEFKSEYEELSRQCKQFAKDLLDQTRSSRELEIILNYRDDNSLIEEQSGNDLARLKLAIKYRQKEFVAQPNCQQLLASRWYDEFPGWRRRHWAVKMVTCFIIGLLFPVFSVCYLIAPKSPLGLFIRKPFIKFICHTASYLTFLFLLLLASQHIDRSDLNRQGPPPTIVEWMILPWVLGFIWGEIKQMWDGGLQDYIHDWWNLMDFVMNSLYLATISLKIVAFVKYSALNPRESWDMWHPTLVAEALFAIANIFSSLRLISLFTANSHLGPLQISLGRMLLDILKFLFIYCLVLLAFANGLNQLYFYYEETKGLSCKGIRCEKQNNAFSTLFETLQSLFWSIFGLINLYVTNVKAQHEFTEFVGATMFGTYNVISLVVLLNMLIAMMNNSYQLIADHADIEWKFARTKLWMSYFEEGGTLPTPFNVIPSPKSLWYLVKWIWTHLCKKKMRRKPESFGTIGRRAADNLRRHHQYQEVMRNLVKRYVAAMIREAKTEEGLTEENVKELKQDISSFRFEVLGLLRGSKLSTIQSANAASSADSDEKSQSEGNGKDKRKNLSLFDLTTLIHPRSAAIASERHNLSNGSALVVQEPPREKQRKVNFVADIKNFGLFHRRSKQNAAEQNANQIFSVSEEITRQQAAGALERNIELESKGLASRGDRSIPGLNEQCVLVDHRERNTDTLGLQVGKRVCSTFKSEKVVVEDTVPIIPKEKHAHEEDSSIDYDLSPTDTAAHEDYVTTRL
Briefly: mouse TRPC4 channel activators, dose response, cell-based, HEK293 TRPC4/mu-opioid, Fluo-4 calcium (AID 434937). In kind it is functional.

A short description of assay [3]: NIH-3T3 fibroblast cytotoxicity, dose response, cytotoxicity control, cell-based, fluorescence, Alamar Blue, secondary assay (AID 2327).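 Also: NIH-3T3 mouse fibroblasts cultured with fluconazole at 8 µg/mL.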 The assay is classed as functional. (In general: The colour change of resazurin is a common sign of viable cells or microbes.)
Assay [4] can be described thus: C. albicans growth with fluconazole, confirmation, fluorescence, retest (AID 2467). In kind it is functional, cell-based.
Assay [5] has as its system HEK293. Briefly: cells. To be noted: Homo sapiens.
Assay [6] concerns HEK293. Briefly: cells. To be noted: Homo sapiens. This is another data set of the same source.
The nature of assay [7]: cells. The assay is classed as functional, cell-based.
Assay [8] can be described thus: cells. In kind it is functional, cell-based. The source holds these as a separate data set.
The target in assay [9] is T2, Aminopeptidase N (Plasmodium falciparum FcB1/Columbia, UniProt O96935).
T2 sequence (O96935 whole entry): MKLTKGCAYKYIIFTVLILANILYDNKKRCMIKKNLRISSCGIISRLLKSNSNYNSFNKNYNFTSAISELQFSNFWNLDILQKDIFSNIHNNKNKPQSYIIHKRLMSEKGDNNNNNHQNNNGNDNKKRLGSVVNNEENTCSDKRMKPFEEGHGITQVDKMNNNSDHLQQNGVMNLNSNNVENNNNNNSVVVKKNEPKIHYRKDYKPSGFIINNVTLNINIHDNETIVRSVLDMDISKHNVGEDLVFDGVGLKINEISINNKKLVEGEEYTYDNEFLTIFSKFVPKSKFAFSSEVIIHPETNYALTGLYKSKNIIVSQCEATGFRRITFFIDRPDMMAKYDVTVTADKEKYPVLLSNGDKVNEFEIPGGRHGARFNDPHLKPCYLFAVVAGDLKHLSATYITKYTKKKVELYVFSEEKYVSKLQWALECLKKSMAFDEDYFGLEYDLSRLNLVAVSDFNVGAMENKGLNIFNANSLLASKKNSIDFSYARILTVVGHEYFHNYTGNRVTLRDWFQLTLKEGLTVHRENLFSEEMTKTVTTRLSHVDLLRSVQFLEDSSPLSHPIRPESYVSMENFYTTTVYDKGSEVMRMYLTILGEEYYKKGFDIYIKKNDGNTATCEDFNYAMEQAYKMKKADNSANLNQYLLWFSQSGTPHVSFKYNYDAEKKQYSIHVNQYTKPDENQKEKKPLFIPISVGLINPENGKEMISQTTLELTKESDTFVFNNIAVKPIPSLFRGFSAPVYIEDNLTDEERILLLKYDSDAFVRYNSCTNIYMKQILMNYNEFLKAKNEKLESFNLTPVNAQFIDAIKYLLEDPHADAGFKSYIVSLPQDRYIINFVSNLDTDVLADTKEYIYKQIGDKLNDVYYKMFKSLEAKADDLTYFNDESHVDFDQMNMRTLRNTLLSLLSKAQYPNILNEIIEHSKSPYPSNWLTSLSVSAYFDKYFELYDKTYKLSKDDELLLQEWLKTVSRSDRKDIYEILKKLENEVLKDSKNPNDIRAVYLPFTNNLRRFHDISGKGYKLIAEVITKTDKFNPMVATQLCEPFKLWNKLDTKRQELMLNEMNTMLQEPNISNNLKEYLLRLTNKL
In words: P. falciparum M1AAP inhibitors, biochemical, fluorogenic H-Leu-NHMec substrate, 1536-well (AID 1445). The arrangement: species or system Plasmodium falciparum 3D7, 3D7.

Assay [10] concerns the target T3, Sentrin-specific protease 7 (Homo sapiens, UniProt Q9BQF6).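 Also: Luminescence-based dose-response confirmation of ultra-high-throughput screening hits, measuring inhibition of SENP7.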
T3 sequence (Q9BQF6 whole entry): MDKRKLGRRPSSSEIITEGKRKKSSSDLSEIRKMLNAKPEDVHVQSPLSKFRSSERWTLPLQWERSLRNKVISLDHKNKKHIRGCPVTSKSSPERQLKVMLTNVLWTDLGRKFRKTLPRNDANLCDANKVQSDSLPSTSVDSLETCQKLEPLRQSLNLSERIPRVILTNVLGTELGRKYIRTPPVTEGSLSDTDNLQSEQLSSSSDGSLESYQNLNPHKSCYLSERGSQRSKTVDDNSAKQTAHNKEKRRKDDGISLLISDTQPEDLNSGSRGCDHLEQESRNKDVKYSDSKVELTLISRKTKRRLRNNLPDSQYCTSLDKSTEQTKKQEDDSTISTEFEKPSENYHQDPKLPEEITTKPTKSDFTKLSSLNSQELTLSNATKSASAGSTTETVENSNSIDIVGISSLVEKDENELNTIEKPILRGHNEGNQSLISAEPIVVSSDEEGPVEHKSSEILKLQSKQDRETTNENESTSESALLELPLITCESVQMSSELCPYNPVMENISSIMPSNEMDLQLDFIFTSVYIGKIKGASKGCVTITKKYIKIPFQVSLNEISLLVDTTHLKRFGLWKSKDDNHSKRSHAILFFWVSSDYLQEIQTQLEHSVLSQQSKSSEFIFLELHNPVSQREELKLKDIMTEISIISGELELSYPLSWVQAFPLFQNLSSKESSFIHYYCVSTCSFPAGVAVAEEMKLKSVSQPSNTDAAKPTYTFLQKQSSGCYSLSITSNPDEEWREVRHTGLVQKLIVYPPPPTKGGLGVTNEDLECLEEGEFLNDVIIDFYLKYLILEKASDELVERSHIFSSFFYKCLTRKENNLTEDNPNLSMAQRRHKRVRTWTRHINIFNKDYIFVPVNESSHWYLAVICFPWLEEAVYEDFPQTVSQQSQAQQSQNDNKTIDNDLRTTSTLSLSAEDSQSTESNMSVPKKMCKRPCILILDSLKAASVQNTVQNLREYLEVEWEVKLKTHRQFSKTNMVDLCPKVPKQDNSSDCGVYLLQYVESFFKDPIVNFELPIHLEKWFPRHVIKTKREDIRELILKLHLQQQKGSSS
The assay is classed as functional.

Assay [11] deals with T4, Sentrin-specific protease 6 (Homo sapiens, UniProt Q9GZR1).
T4 sequence (Q9GZR1 whole entry): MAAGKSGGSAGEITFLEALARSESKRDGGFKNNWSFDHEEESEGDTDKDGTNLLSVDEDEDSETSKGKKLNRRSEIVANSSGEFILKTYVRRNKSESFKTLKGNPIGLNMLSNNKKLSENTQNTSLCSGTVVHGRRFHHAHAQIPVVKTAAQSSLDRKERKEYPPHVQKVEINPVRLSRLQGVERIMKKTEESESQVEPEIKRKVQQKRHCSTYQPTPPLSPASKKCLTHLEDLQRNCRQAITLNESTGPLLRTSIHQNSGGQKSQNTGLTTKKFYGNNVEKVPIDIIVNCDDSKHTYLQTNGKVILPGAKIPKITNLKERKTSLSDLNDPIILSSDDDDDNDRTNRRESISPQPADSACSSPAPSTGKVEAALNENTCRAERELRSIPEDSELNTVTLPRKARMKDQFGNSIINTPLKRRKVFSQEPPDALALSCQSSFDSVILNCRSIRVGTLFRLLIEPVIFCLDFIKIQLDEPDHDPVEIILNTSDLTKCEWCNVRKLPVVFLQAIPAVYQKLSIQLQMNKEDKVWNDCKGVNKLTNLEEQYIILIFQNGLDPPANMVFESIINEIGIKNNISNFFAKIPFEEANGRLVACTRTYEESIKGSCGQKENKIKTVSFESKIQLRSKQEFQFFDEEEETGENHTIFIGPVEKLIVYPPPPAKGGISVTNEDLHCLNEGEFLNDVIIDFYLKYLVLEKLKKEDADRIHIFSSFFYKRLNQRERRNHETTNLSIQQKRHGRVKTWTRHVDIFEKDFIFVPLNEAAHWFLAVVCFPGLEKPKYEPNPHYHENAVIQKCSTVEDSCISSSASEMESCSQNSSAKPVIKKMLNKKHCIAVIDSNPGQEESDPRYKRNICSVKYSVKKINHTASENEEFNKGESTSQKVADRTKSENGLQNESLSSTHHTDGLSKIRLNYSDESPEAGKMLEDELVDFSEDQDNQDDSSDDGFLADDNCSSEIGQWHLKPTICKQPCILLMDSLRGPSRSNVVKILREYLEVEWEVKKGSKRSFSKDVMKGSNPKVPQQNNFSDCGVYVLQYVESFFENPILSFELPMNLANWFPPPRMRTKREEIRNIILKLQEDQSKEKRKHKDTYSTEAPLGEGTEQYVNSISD
The assay is classed as functional.

For assay [12], the target named is T5, Sentrin-specific protease 8 (Homo sapiens, UniProt Q96LD8).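 Also: luminescence read-out of SENP8 inhibition, dose-response confirmation following an ultra-high-throughput screen.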
T5 sequence (Q96LD8 whole entry): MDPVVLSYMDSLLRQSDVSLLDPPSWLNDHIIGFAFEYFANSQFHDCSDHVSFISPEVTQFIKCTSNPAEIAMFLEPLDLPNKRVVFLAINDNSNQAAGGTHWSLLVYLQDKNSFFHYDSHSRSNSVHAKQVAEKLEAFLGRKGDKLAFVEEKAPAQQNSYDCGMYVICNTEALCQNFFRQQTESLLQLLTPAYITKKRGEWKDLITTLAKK
The assay is classed as functional.

In assay [13] the test system is INS1. Briefly: beta cell apoptosis inhibitors, cytokine rescue, dose response, luminescence, retest (AID 449756).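 Also: cell death triggered by IL-1 beta plus TNF-alpha plus IFN-gamma mixture; protective hits raise ATP signal compared with cytokine alone wells.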 The assay is classed as functional, cell-based. As to conditions: Rattus norvegicus.
In assay [14] the target is T6, Polyadenylate-binding protein 1 (Homo sapiens, UniProt P11940). In words: PABP1 MLLE–PAM2 interaction inhibitors, dose response, miRNA deadenylation inhibitor project, biochemical, fluorescence polarization, Cy5-PAM2 peptide, secondary (AID 602260). In kind it is functional. To be noted: read-out: IC50_Mean. On the technique in general: Fluorescence polarisation rises when a labelled molecule tumbles more slowly, as on binding a larger partner.

Assay [15] has as its target T6, Polyadenylate-binding protein 1. In words: PABP1 MLLE–PAM2 binding inhibitor potency, dose response, biochemical, fluorescence polarization, FITC-PAM2 peptide (AID 602259). To be noted: read-out: IC50_Mean. In kind it is functional.

T6 sequence (P11940 whole entry): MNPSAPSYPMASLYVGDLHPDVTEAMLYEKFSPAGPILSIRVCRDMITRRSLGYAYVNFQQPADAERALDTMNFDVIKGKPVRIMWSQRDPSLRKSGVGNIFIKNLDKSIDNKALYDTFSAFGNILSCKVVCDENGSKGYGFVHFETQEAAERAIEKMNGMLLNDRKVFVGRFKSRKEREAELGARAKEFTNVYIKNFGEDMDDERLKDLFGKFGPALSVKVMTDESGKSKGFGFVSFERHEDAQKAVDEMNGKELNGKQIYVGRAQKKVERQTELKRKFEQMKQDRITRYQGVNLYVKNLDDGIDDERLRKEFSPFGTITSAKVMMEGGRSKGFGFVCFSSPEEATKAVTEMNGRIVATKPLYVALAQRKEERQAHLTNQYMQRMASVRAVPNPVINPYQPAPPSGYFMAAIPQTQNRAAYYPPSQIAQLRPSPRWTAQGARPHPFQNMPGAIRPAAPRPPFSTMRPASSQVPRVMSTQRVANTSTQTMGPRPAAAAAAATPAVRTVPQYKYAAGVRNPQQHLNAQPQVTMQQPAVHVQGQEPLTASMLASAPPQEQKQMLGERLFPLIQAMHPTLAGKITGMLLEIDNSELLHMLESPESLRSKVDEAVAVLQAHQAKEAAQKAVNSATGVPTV
Nonstructural protein 1, sequence (Q194T2 whole entry): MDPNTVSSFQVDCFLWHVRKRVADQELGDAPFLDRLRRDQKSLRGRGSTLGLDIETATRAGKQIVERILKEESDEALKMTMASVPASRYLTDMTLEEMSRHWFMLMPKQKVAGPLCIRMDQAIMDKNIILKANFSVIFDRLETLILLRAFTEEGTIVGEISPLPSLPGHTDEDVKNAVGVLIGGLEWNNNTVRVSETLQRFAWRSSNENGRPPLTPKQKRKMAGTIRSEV

For `CC1(C)OC(c2ccccc2)=C/C(=C/C=C2C(=O)c3ccccc3C2=O)O1`, in [1], the IC50 is 6.6 µM (active).
What is called EC50 is the midpoint of the concentration-response curve. As to `COc1cccc(CN2CCNC(=O)C2CC(=O)N(C)CCc2ccccn2)c1` (stereo not given), the concentration for a half-maximal effect (EC50) in assay [2] is 4.73 µM (active).
For the compound `Fc1cccc(-n2cc(-c3ccccc3)c3c(S)ncnc32)c1`, the EC50 was > 150 µM (inactive) in assay [3], 8.62 µM (active) in [4], > 59.6 µM (inactive) in assay [5] and > 59.6 µM (inactive) in assay [6].
For the compound `COc1ccc(CCN(C)c2ccc(S(=O)(=O)N3CCCC3)cc2[N+](=O)[O-])cc1OC`, the EC50 in [5] and in assay [6] was > 59.7 µM (inactive) in each case.
Regarding `COC(=O)C1=C(C)N(C)C(=O)NC1c1cc(Cl)c(O)c(OC)c1` (stereo not given), the EC50 in assay [7] was > 350 µM (not active); in [8], > 350 µM (not active); in [5], > 59.6 µM (inactive); in assay [6], > 59.6 µM (inactive).
Take `OCCNCCSc1ccc(Cl)cc1`: in [2], the concentration giving a half-maximal response (EC50) was 1.5 µM (active).
On to `CCCCN(CC)C(=O)CSc1nc2c(sc(=S)n2-c2ccc(OCC)cc2)c(=O)[nH]1`, for which the IC50 in assay [9] was 38.8 µM (active).
The same measure, in the same setting: the same measure for `Cc1ccc(S(=O)(=O)N(C)C)cc1NC(=O)Nc1c(-c2ccccc2)noc1C`: 12.9 µM (active).
`COc1ccc(C(N)=NOC(=O)CSc2ccccc2)cc1`: the values for the IC50 in assay [10], in assay [11] and in assay [12] were 5.98 µM (active), 28 µM (active) and 12.8 µM (active), respectively.
`CN(C)C(CNC(=O)CSc1nc2sc3c(c2c(=O)n1C)CCCC3)c1ccccc1` (stereo not given): the EC50 in assay [5] and in assay [6] was > 59.6 µM (inactive) throughout.
Usually AC50 stands for the concentration giving half of the maximal activity seen. With `COc1ccc(O)c(/C=N/NC(=S)Nc2cccnc2)c1`, the IC50 was 3.04 µM (active) in [1], > 66 µM (inactive) in assay [14] and > 66 µM (inactive) in assay [15]. For the same compound, in [13], the AC50 was 1.56 µM (active).
As for `O=C(O)C(Cc1ccccc1)/N=C/c1c(O)oc2ccccc2c1=O` (stereo not given), the IC50 in assay [9] is 20.6 µM (active).
